In ChEMBL document CHEMBL5104138, “Discovery of pyridyl urea sulfonamide inhibitors of NaV1.7” (Bioorg Med Chem Lett, 2022):
Converted amounts (≈) assume the structure as drawn.

What was measured:
[1] = rat, in vivo, iv, 0.5 mg/kg
Description: Unbound clearance in rat at 0.5 mg/kg, iv

[2] = biological target: T1, Sodium channel protein type 9 subunit alpha (Homo sapiens, UniProt Q15858); test: Inhibition of human Nav1.7 by PatchXpress assay
Target sequence in this assay (Q15858 whole entry): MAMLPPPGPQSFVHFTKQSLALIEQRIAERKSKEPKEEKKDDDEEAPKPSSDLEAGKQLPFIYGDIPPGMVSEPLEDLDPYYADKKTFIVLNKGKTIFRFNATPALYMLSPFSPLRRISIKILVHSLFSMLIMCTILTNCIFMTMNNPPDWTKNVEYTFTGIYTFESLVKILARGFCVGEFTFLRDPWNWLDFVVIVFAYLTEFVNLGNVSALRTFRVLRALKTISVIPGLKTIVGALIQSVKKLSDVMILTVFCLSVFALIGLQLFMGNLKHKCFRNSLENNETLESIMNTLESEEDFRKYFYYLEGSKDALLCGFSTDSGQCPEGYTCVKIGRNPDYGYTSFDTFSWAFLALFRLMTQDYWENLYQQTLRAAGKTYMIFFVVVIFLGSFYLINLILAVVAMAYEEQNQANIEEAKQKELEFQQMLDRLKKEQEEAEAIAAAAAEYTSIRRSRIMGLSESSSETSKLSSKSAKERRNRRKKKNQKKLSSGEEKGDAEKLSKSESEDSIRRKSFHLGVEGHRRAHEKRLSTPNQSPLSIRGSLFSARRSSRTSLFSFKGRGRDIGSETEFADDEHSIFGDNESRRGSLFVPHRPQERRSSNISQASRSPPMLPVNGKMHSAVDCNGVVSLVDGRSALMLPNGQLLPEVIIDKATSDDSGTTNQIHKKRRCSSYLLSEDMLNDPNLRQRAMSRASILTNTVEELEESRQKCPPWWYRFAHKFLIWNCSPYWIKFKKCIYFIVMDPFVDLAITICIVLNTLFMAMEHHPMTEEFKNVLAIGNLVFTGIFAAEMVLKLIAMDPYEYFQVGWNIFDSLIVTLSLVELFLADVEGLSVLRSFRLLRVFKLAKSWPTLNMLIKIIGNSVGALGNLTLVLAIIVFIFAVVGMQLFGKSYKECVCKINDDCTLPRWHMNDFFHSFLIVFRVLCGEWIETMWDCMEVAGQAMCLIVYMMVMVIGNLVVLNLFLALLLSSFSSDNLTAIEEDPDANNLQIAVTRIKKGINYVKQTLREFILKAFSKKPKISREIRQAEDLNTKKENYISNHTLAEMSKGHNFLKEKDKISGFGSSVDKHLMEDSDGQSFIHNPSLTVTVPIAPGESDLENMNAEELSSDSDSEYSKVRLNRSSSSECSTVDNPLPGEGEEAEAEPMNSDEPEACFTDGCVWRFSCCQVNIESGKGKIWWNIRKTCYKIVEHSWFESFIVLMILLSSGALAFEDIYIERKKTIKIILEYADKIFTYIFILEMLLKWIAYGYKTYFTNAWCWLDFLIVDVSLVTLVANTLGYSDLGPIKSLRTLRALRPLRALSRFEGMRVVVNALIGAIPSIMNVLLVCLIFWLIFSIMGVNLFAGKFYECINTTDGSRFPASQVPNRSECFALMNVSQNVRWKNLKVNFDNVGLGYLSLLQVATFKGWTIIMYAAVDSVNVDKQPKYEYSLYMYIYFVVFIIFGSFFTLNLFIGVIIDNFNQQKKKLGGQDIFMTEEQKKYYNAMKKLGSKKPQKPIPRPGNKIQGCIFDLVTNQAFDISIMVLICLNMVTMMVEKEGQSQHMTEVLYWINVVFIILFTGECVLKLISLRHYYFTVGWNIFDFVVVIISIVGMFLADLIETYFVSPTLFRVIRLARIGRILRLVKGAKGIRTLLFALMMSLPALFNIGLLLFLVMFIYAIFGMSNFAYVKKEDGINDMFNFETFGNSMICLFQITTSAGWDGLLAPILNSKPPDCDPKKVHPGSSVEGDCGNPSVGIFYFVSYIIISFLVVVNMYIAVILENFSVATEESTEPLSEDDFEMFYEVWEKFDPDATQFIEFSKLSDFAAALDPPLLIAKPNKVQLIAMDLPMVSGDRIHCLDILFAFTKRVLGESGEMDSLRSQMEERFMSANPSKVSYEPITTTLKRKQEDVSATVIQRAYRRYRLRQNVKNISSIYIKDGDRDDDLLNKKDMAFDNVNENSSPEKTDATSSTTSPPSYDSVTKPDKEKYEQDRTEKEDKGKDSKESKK

[3] = Clearance in rat at 0.5 mg/kg, iv; conditions: in vivo
Cytochrome P450 3A4 [4] = biological target: T2, Cytochrome P450 3A4 (Homo sapiens, UniProt P08684); test: Time dependent inhibition of CYP3A4 in human liver microsomes using midazolam as substrate preincubated for 30 mins followed by substrate addition; assay type: ADME, Microsome
Cytochrome P450 3A4 [5] = biological target: T2, Cytochrome P450 3A4; test: Time dependent inhibition of CYP3A4 in human liver microsomes using midazolam as substrate incubated for 30 mins; assay type: ADME, Microsome
[6] = Passive permeability of compound; assay type: ADME; conditions: not told; read-out: permeability
Cytochrome P450 2D6 [7] = biological target: T3, Cytochrome P450 2D6 (Homo sapiens, UniProt P10635); test: Time dependent inhibition of CYP2D6 (unknown origin) incubated for 30 mins; assay type: ADME
[8] = Lipophilicity, logD of compound at pH 7.4; assay type: physicochemical; conditions: buffer
Cytochrome P450 2D6 [9] = biological target: T3, Cytochrome P450 2D6; test: Time dependent inhibition of CYP2D6 (unknown origin) preincubated for 30 mins followed by substrate addition; assay type: ADME
[10] = biological target: T1, Sodium channel protein type 9 subunit alpha; test: Inhibition of human Nav1.7 at 1 uM by PatchXpress assay relative to control
Target sequence in this assay (Q15858 whole entry, looked up): as the sequence (Q15858 whole entry) above

[11] = Oral bioavailability in dog at 2 mg/kg; assay type: ADME, organism-based, Canis lupus familiaris; conditions: in vivo
Mus musculus [12] = test: Antinociceptive activity in UV burn-induced thermal hyperalgesia mouse model assessed as reduction in latency time at 30 mg/kg, po relative to control; assay type: functional; design: scale not given: the % may be the effect or the level left
[13] = Clearance in mouse; assay type: ADME, organism-based; conditions: in vivo
[14] = Unbound clearance in dog at 0.25 mg/kg, iv; assay type: ADME, organism-based, Canis lupus familiaris; conditions: in vivo
PXR (NR1I2) = biological target: T4, PXR (NR1I2) (Homo sapiens, UniProt O75469); test: Activation of human PXR at 10 uM relative to control; assay type: toxicity; conditions: read-out: Activity
T4 sequence (O75469 whole entry): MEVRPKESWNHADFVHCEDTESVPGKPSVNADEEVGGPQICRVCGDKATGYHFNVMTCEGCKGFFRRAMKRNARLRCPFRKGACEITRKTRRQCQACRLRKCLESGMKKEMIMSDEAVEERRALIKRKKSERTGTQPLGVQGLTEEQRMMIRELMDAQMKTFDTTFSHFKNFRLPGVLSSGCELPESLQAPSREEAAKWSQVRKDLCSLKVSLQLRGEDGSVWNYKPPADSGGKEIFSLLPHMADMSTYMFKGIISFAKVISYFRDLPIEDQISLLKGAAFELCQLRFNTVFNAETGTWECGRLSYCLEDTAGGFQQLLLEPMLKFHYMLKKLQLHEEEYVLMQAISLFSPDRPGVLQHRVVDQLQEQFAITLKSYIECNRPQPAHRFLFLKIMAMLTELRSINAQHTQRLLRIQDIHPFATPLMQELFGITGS

Mus musculus [15] = test: Antinociceptive activity in mouse model of Histamine-induced itching assessed as reduction in scratching bouts at 10 mg/kg, po relative to control; assay type: functional; design: scale not given: the % may be the effect or the level left
[16] = Half life in mouse at 100 mg/kg, po; assay type: ADME, organism-based; conditions: in vivo
[17] = AUC in dog at 2 mg/kg, po; assay type: ADME, organism-based, Canis lupus familiaris; design: dose 2 mg/kg, route po; conditions: in vivo
[18] = Oral bioavailability in rat at 10 mg/kg; assay type: ADME, organism-based; conditions: in vivo
[19] = Oral bioavailability in mouse at 100 mg/kg; assay type: ADME, organism-based; conditions: in vivo
Mus musculus [20] = test: Antinociceptive activity in mouse model of Histamine-induced itching assessed as reduction in scratching bouts at 30 mg/kg, po relative to control; assay type: functional; design: scale not given: the % may be the effect or the level left
[21] = Permeability in MDCK cells; assay type: ADME, cell-based, Canis lupus familiaris; conditions: dog, read-out: permeability
[22] = AUC in mouse at 100 mg/kg, po; assay type: ADME, organism-based; design: dose 100 mg/kg, route po; conditions: in vivo
[23] = biological target: Sodium channel protein type 5 subunit alpha (Homo sapiens, UniProt Q14524); test: Inhibition of human Nav1.5 at -50 mV holding potential by PatchXpress assay
[24] = half life in dog at 2 mg/kg, po; assay type: ADME, organism-based, Canis lupus familiaris; conditions: in vivo
[25] = AUC in rat at 10 mg/kg, po; assay type: ADME, organism-based; design: dose 10 mg/kg, route po; conditions: in vivo
Mus musculus [26] = test: Antinociceptive activity in mouse model of Histamine-induced itching assessed as reduction in scratching bouts at 3 mg/kg, po relative to control; assay type: functional; design: scale not given: the % may be the effect or the level left
Mus musculus [27] = test: Antinociceptive activity in capsaicin-induced licking mouse model assessed as reduction in time spent on licking at 10 mg/kg, po relative to control; assay type: functional; design: scale not given: the % may be the effect or the level left
[28] = Unbound clearance in mouse; assay type: ADME, organism-based; conditions: in vivo
Cytochrome P450 2C9 [29] = biological target: T5, Cytochrome P450 2C9 (Homo sapiens, UniProt P11712); test: Inhibition of CYP2C9 (unknown origin); assay type: ADME
[30] = Clearance in dog at 0.25 mg/kg, iv; assay type: ADME, organism-based, Canis lupus familiaris; conditions: in vivo
[31] = Solubility of the compound at pH 7.4; assay type: physicochemical; conditions: buffer
[32] = Half life in rat at 10 mg/kg, po; assay type: ADME, organism-based; conditions: in vivo
[33] = Intrinsic clearance in rat liver microsomes assessed as loss of parent compound incubated for 30 mins; assay type: ADME, Microsome; conditions: read-out: CLH
Cytochrome P450 2C9 [34] = biological target: T5, Cytochrome P450 2C9; test: Inhibition of CYP2C9 (unknown origin) using diclofenac as substrate; assay type: ADME
Mus musculus [35] = test: Antinociceptive activity in capsaicin-induced licking mouse model assessed as reduction in time spent on licking at 3 mg/kg, po relative to control; assay type: functional; design: scale not given: the % may be the effect or the level left

T2 sequence (P08684 whole entry): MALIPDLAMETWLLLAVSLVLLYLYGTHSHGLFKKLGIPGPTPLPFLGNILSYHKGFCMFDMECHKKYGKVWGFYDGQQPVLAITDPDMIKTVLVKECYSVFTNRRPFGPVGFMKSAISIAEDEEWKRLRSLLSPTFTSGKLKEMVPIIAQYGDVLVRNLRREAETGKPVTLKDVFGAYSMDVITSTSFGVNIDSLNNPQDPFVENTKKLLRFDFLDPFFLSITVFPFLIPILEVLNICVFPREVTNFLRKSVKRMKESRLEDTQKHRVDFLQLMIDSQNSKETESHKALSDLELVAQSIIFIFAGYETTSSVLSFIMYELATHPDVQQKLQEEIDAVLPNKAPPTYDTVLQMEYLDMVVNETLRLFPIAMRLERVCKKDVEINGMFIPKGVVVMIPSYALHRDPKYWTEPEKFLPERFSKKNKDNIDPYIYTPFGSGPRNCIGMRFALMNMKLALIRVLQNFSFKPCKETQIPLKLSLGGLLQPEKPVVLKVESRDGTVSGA
T5 sequence (P11712 whole entry): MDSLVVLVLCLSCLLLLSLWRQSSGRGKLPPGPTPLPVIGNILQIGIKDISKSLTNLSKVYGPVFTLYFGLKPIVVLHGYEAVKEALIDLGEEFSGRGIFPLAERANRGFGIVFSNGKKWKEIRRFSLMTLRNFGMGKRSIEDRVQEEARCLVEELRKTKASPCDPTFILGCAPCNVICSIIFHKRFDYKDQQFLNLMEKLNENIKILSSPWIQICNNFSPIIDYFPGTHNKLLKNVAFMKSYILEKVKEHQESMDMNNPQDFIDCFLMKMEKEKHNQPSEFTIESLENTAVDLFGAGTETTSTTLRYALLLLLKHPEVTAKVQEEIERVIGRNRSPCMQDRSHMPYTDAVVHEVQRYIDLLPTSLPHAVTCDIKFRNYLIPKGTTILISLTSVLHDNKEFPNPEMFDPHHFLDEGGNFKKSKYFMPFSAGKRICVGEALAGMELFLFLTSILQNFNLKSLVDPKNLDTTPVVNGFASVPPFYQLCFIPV
T3 sequence (P10635 whole entry): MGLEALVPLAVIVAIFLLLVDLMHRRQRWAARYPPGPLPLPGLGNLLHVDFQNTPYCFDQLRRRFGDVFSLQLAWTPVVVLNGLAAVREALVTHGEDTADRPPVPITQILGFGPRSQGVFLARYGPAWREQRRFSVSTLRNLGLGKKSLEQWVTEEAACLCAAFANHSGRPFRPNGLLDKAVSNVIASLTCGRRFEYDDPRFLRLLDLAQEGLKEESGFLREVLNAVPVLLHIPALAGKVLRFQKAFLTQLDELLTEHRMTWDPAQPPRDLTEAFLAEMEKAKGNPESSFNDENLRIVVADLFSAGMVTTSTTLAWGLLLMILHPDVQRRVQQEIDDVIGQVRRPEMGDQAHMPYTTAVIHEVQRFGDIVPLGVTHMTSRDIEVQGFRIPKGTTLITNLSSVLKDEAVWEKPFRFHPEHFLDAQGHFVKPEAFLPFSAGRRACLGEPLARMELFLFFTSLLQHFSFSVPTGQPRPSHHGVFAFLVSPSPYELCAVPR

Work on `COc1cc(-c2ccc(Cl)c(C#N)c2)c(F)cc1-n1c(=O)ccc2cc(S(=O)(=O)Nc3ccon3)ccc21` yielded a CL free [1] of 10100 mL/min/kg, an IC50 [2] of 0.008 µM and a clearance [3] of 35 mL/min/kg.

For `CNC(=O)N(c1ccc(S(=O)(=O)Nc2ccon2)cn1)c1cc(Cl)c(-c2cc(OC)cc(C(F)(F)F)c2)cc1OC`, the IC50 (Cytochrome P450 3A4 [4]) was > 50 µM and the IC50 (Cytochrome P450 3A4 [5]) was 17 µM.

In the case of `COc1cc(-c2cccc(C(F)(F)F)c2)c(Cl)cc1N(C(N)=O)c1ccc(S(=O)(=O)Nc2ccon2)cn1`, the Papp [6] is reported as < 1.5 ×10⁻⁶ cm/s, the IC50 [2] is reported as 0.008 µM and the clearance [3] is reported as 88.3 mL/min/kg.

With `CNC(=O)N(c1ccc(S(=O)(=O)Nc2cccnn2)cn1)c1cc(F)c(-c2ccc(F)c(OC(F)(F)F)c2)cc1OC` the CL free [1] was 1150 mL/min/kg, the IC50 (Cytochrome P450 3A4 [4]) was > 50 µM and the IC50 (Cytochrome P450 2D6 [7]) was 30 µM. For the same molecule, the logD [8] was 1.8, the clearance [3] was 11.7 mL/min/kg and the IC50 (Cytochrome P450 3A4 [5]) was > 50 µM. The IC50 (Cytochrome P450 2D6 [9]) was 19 µM.

`CNC(=O)N(c1ccc(S(=O)(=O)Nc2ccon2)cc1)c1ccc(-c2ccc(Cl)c(C)c2)cc1OC` showed a CL free [1] of 3000 mL/min/kg, a Papp [6] of 1.5 ×10⁻⁶ cm/s and an IC50 [2] of 3.8 µM. It also gave a clearance [3] of 22.2 mL/min/kg.

With `CNC(=O)N(c1ccc(S(=O)(=O)Nc2ccon2)cn1)c1cc(Cl)c(-c2ccc(F)c(C(F)(F)F)c2)cc1OC` the IC50 (Cytochrome P450 3A4 [4]) was > 50 µM and the IC50 (Cytochrome P450 3A4 [5]) was 12 µM.

With `COc1cc(-c2ccc(Cl)c(C)c2)ccc1N(C(=O)NC(C)C)c1ccc(S(=O)(=O)Nc2ccon2)cn1` the inhibition [10] was 3.9%.

For `CNC(=O)N(c1ccc(S(=O)(=O)Nc2ncccn2)cn1)c1cc(F)c(-c2ccc(F)c(OC(F)(F)F)c2)cc1OC`, the bioavailability [11] was 104%, the CL free [1] was 733 mL/min/kg and the IC50 (Cytochrome P450 3A4 [4]) was > 50 µM. For the same molecule, the Activity (Mus musculus [12]) was 89%, the clearance [13] was 1.67 mL/min/kg and the CL free [14] was 60 mL/min/kg. For the same molecule, the activity at 10 µM (PXR (NR1I2)) was 3%, the Activity (Mus musculus [15]) was 83% and the half-life [16] was 3.4 h. It also gave an AUC [17] of 200 µM·h, a bioavailability [18] of 95% and a bioavailability [19] of 80%. The Activity (Mus musculus [20]) was 95%, the logD [8] was 1.4 and the Papp [21] was 18 ×10⁻⁶ cm/s. The AUC [22] was 1150 µM·h, the IC50 [23] was 40 µM and the clearance [3] was 1.17 mL/min/kg. For the same molecule, the half-life [24] was 18 h, the AUC [25] was 212 µM·h and the Activity (Mus musculus [26]) was 55%. For the same molecule, the IC50 (Cytochrome P450 3A4 [5]) was > 50 µM, the Activity (Mus musculus [27]) was 63% and the CL free [28] was 183 mL/min/kg. For the same molecule, the IC50 (Cytochrome P450 2C9 [29]) was 3.3 µM, the clearance [30] was 0.25 mL/min/kg and the solubility [31] was 260 µM (≈ 159 µg/mL). For the same molecule, the half-life [32] was 4.6 h.

For `CNC(=O)N(c1ccc(S(=O)(=O)Nc2ccon2)cn1)c1cc(Cl)c(-c2cccc(C(F)(F)F)c2)cc1OC`, the IC50 (Cytochrome P450 3A4 [4]) was > 50 µM, the IC50 [2] was 0.017 µM and the IC50 (Cytochrome P450 3A4 [5]) was 5 µM.

For `COc1cc(-c2ccc(Cl)c(C)c2)ccc1N(C(=O)N(C)C)c1ccc(S(=O)(=O)Nc2ccon2)cn1`, the IC50 [2] was > 5 µM.

In the case of `CNC(=O)N(c1ccc(S(=O)(=O)Nc2ccon2)cn1)c1cc(Cl)c(-c2cc(OC)nc(C(F)(F)F)c2)cc1OC`, the IC50 (Cytochrome P450 3A4 [4]) is reported as > 50 µM and the IC50 (Cytochrome P450 3A4 [5]) is reported as > 50 µM.

For `CNC(=O)N(c1ccc(S(=O)(=O)Nc2ccon2)cn1)c1ccc(-c2ccc(Cl)c(C)c2)cc1OC`, the CL free [1] was 6130 mL/min/kg, the IC50 (Cytochrome P450 3A4 [4]) was > 50 µM and the microsomal CLint [33] was 29 µL/min/mg. The IC50 (Cytochrome P450 2C9 [34]) was 3.3 µM, the logD [8] was 0.8 and the IC50 [2] was 0.087 µM. For the same molecule, the clearance [3] was 14.7 mL/min/kg and the IC50 (Cytochrome P450 3A4 [5]) was > 50 µM.

For `CN1CC[C@]23c4c5ccc(O)c4O[C@H]2[C@@H](O)C=C[C@H]3[C@H]1C5` [MORPHINE], the Activity (Mus musculus [35]) was 98%.
